Values joined by “and” are separate entries in the source; they are usually repeats but may differ in a detail not shown here. Identical values can stand only once.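 The compound was tested at five concentrations on cells cultured in 96-well plates, with a 48-hour exposure period. GI50 is the concentration that inhibits growth by half. TGI is the concentration that stops growth completely.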
How the values were obtained:
Assay in all cases: NCI-60 cell line screen, 48 h
K-562 leukemia = test system: K-562 leukemia
T-47D breast = test system: T-47D breast
SF-268 CNS = test system: SF-268 CNS
NCI/ADR-RES ovarian = test system: NCI/ADR-RES ovarian
HCC-2998 colon = test system: HCC-2998 colon
COLO 205 colon = test system: COLO 205 colon
KM12 colon = test system: KM12 colon
MCF7 breast = test system: MCF7 breast
HL-60(TB) leukemia = test system: HL-60(TB) leukemia
SR leukemia = test system: SR leukemia

SMILES	TGI (K-562 leukemia)	TGI (T-47D breast)	GI50 (SF-268 CNS)	TGI (SF-268 CNS)	GI50 (NCI/ADR-RES ovarian)	TGI (NCI/ADR-RES ovarian)	GI50 (HCC-2998 colon)	TGI (HCC-2998 colon)	TGI (COLO 205 colon)	GI50 (KM12 colon)	TGI (KM12 colon)	TGI (MCF7 breast)	TGI (HL-60(TB) leukemia)	TGI (SR leukemia)	GI50 (K-562 leukemia)	GI50 (T-47D breast)	GI50 (COLO 205 colon)	GI50 (MCF7 breast)	GI50 (HL-60(TB) leukemia)	GI50 (SR leukemia)
CC(=O)O[C@H]1CC2C(C3CC[C@H](C(C)CCC(=O)O)[C@]31C)[C@H](OC(C)=O)C[C@@H]1CC3(CC[C@]21C)OOC1(CCC(C)CC1)OO3 (stereo partly drawn)	16.8 µM and 6.21 µM	14.1 µM and 8.75 µM	6.18 µM and 2.11 µM	22.7 µM and 5.2 µM	4.88 µM and 2.02 µM	18.3 µM and 4.53 µM	8.43 µM and 2.73 µM	21.3 µM and 6.48 µM	8.21 µM and 4.4 µM	5.73 µM and 2.31 µM	19.4 µM and 6.98 µM	30.4 µM and 38.1 µM	11.2 µM and 4.41 µM	3.82 µM and 3.94 µM						
CC(C)[C@@H]1CC[C@]2(CO2)[C@@H]2C(=O)OCC(C(=O)O)=C[C@H]21	> 100 µM	> 100 µM	0.34 µM	> 52.5 µM	0.431 µM	> 100 µM	0.459 µM	> 52.3 µM	> 57.7 µM	0.344 µM	4.08 µM	> 100 µM	1.7 µM	4.24 µM	0.334 µM	0.381 µM	0.657 µM	0.824 µM	0.328 µM	0.552 µM
CCCCCCCCCCCC[C@@H](O)[C@H]1CC[C@H]([C@H](O)CC[C@H](O)[C@@H]2CC[C@@H](CCCCCCCC3=C[C@H](C)OC3=O)O2)O1	> 50 µM	> 50 µM	4.21 µM	> 50 µM	2.12 µM	> 50 µM		> 50 µM	> 50 µM	4.26 µM	> 50 µM	> 50 µM	5.85 µM and > 50 µM	> 50 µM	3 µM	4.45 µM	8.16 µM	1.85 µM	> 50 µM	> 50 µM
OCCCCC#Cc1ccccc1C#Cc1cccc(C(F)(F)F)c1	71.5 µM	44.5 µM	19.1 µM	42.5 µM	15.5 µM	31.1 µM	17.7 µM	32.3 µM	36.3 µM	16.2 µM	31.3 µM	42.7 µM	59.5 µM	> 100 µM	22.5 µM	22 µM	19.2 µM	21.2 µM	24.6 µM	18.3 µM
COc1ccccc1CNCCN1C(=O)c2ccc3c4c(ccc(c24)C1=O)C(=O)N(CCNCc1ccccc1OC)C3=O	1.09 µM	1.27 µM	0.269 µM	1.12 µM	0.283 µM	0.831 µM	0.182 µM	0.354 µM	0.345 µM	0.165 µM	0.35 µM	0.492 µM	0.607 µM	0.581 µM	0.234 µM	0.481 µM	0.169 µM	0.198 µM	0.265 µM	0.178 µM
Cc1cnc(C(=O)NNc2nc3sc4c(c3c(=O)[nH]2)C(C)CCC4)cn1 (stereo not drawn)	> 100 µM	> 100 µM	0.891 µM	> 100 µM	1.78 µM	10.4 µM	1.63 µM	20.8 µM	13.4 µM	0.93 µM	95.6 µM	> 100 µM	4.89 µM	29.2 µM	2.66 µM	2.75 µM	2.03 µM	1.9 µM	2.04 µM	0.484 µM
COc1ccc(C(O)c2cc3c(N)c(C(=O)Nc4cccc5ccccc45)sc3nc2C)cc1 (stereo not drawn)	> 53.9 µM	> 100 µM	0.615 µM	> 100 µM	0.307 µM	> 50.5 µM	0.475 µM	> 54 µM	> 33.1 µM	0.328 µM		> 90.9 µM	0.652 µM		0.314 µM	> 100 µM	0.457 µM	0.324 µM	0.254 µM	0.141 µM
CCOC(=O)/C(=C\c1cccc(C)c1)C(C)=O	> 100 µM	46.7 µM		45.4 µM		79.5 µM		28.4 µM	41 µM		32.9 µM	35.4 µM	32.2 µM	84.5 µM						
COc1ccc(-c2cc(/C=C/C(=O)c3ccc(N)cc3)[nH]n2)cc1OC	36.4 µM	26 µM	1.89 µM	4.4 µM	6.21 µM	> 100 µM	2.02 µM	3.83 µM	3.59 µM	1.68 µM	3.35 µM	8.48 µM	> 100 µM	5.31 µM	2.03 µM	4.25 µM	1.88 µM	2.28 µM	3.45 µM	0.587 µM
COCCN(Cc1ccc(F)cc1)c1ccc(CO)c(Cl)c1	> 100 µM	7.04 µM	50.6 µM	> 100 µM	27.1 µM	> 100 µM	24 µM	> 100 µM	31.8 µM	33.8 µM	> 100 µM	> 100 µM	> 75.4 µM	> 100 µM	10 µM	0.748 µM	11.1 µM	2.79 µM	27.4 µM	47.9 µM
C=CCN(CC=C)C(=O)c1cc(C)nc2c1c(=O)n(-c1ccccc1)c(=O)n2CCCN1CCN(c2ccccc2OC)CC1	> 50 µM	> 50 µM	> 50 µM	> 50 µM	> 50 µM	> 50 µM	> 50 µM	> 50 µM	> 50 µM	> 50 µM	> 50 µM	> 50 µM	> 50 µM	> 50 µM	> 50 µM	> 50 µM	> 50 µM	> 50 µM	> 50 µM	> 50 µM
COC12C(COC(=O)NCCO)C3=C(C(=O)C(C)=C(N)C3=O)N1CC1NC12 (stereo not drawn)	> 264 µM	> 264 µM	32.9 µM	217 µM		> 264 µM		99.3 µM	85.8 µM	61.7 µM	177 µM	118 µM	> 264 µM	> 264 µM						
Cc1cc(Br)c(NC(=O)c2c(-c3c(Cl)cccc3Cl)noc2C)c(Br)c1	> 100 µM	> 100 µM	> 100 µM	> 100 µM	> 100 µM	> 100 µM	> 100 µM	> 100 µM	> 100 µM	> 100 µM	> 100 µM	> 100 µM	> 100 µM	> 100 µM	> 100 µM	> 100 µM	> 100 µM	> 100 µM	> 100 µM	> 100 µM

Source: PubChem BioAssay (NCI)
